In patent publication US20140051575A1 (priority 2011, published 2014):

Assays:
[1] = Measurement of logP values by HPLC on reversed phase columns (EEC directive 79/831 Annex V.A8); format: physicochemical; conditions: pH 2.7, 0.1% formic acid in water / acetonitrile gradient, calibration with alkan-2-ones
Experimental: Measurement of logP values was performed according EEC directive 79/831 Annex V.A8 by HPLC (High Performance Liquid Chromatography) on reversed phase columns with the following methods:
Measurement of LC-MS was done at pH 2.7 with 0.1% formic acid in water and with acetonitrile (contains 0.1% formic acid) as eluent with a linear gradient from 10% acetonitrile to 95% acetonitrile.
Calibration was done with not branched alkan2-ones (with 3 to 16 carbon atoms) with known logP-values (measurement of logP values using retention times with linear interpolation between successive alkanones). lambda-maX-values were determined using UV-spectra from 200 nm to 400 nm and the peak values of the chromatographic signals.

[2] = tested on: Phytophthora infestans; format: in vivo; conditions: tomato plants, preventive spray, 500 ppm of active ingredient, evaluated 7 days after inoculation; 0% = untreated control, 100% = no disease

Row | Compound | Log P [1] | Eff. % [2]
1 | Cn1nnnc1C(=NOCc1cccc(NC(=O)COCC2CC2)n1)c1ccccc1 [Example 1] | 3.29 | 
2 | CC(OCC1CC1)C(=O)Nc1ccc(Br)c(CON=C(c2ccccc2)c2nnnn2C)n1 (stereo not drawn) [Example 3] | 4.23 | 100%
3 | Cn1nnnc1C(=NOCc1cccc(NC(=O)COCC2CCCC2)n1)c1ccccc1 [Example 5] | 4.24 | 97%
4 | Cn1nnnc1C(=NOCc1cccc(NC(=O)COCC2CCCCC2)n1)c1ccccc1 [Example 6] | 4.63 | 95%
5 | CC(OCC1CCCCC1)C(=O)Nc1cccc(CON=C(c2ccccc2)c2nnnn2C)n1 (stereo not drawn) [Example 7] | 5.03 | 100%
6 | CC(OCC1CCCC1)C(=O)Nc1cccc(CON=C(c2ccccc2)c2nnnn2C)n1 (stereo not drawn) [Example 8] | 4.59 | 100%
7 | Cn1nnnc1C(=NOCc1cccc(NC(=O)COCCC2CCCCC2)n1)c1ccccc1 [Example 10] | 4.98 | 95%
8 | Cn1nnnc1C(=NOCc1cccc(NC(=O)COCCC2CCCC2)n1)c1ccccc1 [Example 11] | 4.61 | 95%
9 | CC(OCC1CCCCC1)C(=O)Nc1nc(CON=C(c2ccccc2)c2nnnn2C)cs1 (stereo not drawn) [Example 18] | 4.64 | 100%
10 | Cn1nnnc1C(=NOCc1csc(NC(=O)COCCC2CCCCC2)n1)c1ccccc1 [Example 20] | 4.63 | 100%
11 | Cn1nnnc1C(=NOCc1csc(NC(=O)COCCC2CCCC2)n1)c1ccccc1 [Example 21] | 4.29 | 95%
12 | Cc1nnnn1C(=NOCc1cccc(NC(=O)COCC2CC2)n1)c1ccccc1 [Example 23] | 3.33 | 95%
13 | Cc1nnnn1C(=NOCc1cccc(NC(=O)COCC2CCCC2)n1)c1ccccc1 [Example 26] | 4.34 | 97%
14 | Cc1nnnn1C(=NOCc1cccc(NC(=O)COCC2CCCCC2)n1)c1ccccc1 [Example 27] | 4.76 | 95%
15 | Cc1nnnn1C(=NOCc1cccc(NC(=O)C(C)OCC2CCCCC2)n1)c1ccccc1 (stereo not drawn) [Example 28] | 5.13 | 100%
16 | Cc1nnnn1C(=NOCc1cccc(NC(=O)C(C)OCC2CCCC2)n1)c1ccccc1 (stereo not drawn) [Example 29] | 4.69 | 100%
17 | Cc1nnnn1C(=NOCc1cccc(NC(=O)COCCC2CCCCC2)n1)c1ccccc1 [Example 30] | 5.08 | 95%
18 | Cc1nnnn1C(=NOCc1cccc(NC(=O)COCCC2CCCC2)n1)c1ccccc1 [Example 31] | 4.73 | 97%
19 | Cc1nnnn1C(=NOCc1cccc(NC(=O)C(C)OCC2CCC2)n1)c1ccccc1 (stereo not drawn) [Example 32] | 4.26 | 100%
20 | Cc1nnnn1C(=NOCc1csc(NC(=O)COCC2CCCC2)n1)c1ccccc1 [Example 36] | 3.94 | 97%
21 | Cc1nnnn1C(=NOCc1csc(NC(=O)COCC2CCCCC2)n1)c1ccccc1 [Example 37] | 4.36 | 100%
22 | Cc1nnnn1C(=NOCc1csc(NC(=O)C(C)OCC2CCCCC2)n1)c1ccccc1 (stereo not drawn) [Example 38] | 4.74 | 100%
23 | Cc1nnnn1C(=NOCc1csc(NC(=O)C(C)OCC2CCCC2)n1)c1ccccc1 (stereo not drawn) [Example 39] | 4.31 | 100%
24 | Cc1nnnn1C(=NOCc1csc(NC(=O)COCCC2CCCCC2)n1)c1ccccc1 [Example 40] | 4.71 | 95%
25 | Cc1nnnn1C(=NOCc1csc(NC(=O)COCCC2CCCC2)n1)c1ccccc1 [Example 41] | 4.34 | 98%

Row | Compound | Log P [1] | Eff. % [2]
26 | CC(C)CCOCC(=O)Nc1cccc(CON=C(c2ccccc2)c2nnnn2C)n1 [Example 43] | 4.09 | 
27 | CC(C)CCOC(C)C(=O)Nc1cccc(CON=C(c2ccccc2)c2nnnn2C)n1 (stereo not drawn) [Example 44] | 4.41 | 100%
28 | Cc1nnnn1C(=NOCc1csc(NC(=O)COCCC(C)C)n1)c1ccccc1 [Example 46] | 3.87 | 100%
29 | CC(OCc1ccccc1)C(=O)Nc1cccc(CON=C(c2ccccc2)c2nnnn2C)n1 (stereo not drawn) [Example 47] | 3.92 | 
30 | Cc1nnnn1C(=NOCc1cccc(NC(=O)C(C)OCc2ccccc2)n1)c1ccccc1 (stereo not drawn) [Example 51] | 4.11 | 95%
31 | Cn1nnnc1C(=NOCc1cccc(NC(=O)COCC2CCCCO2)n1)c1ccccc1 (stereo not drawn) [Example 53] | 3.33 | 
32 | CC(OCC1CCCCO1)C(=O)Nc1cccc(CON=C(c2ccccc2)c2nnnn2C)n1 (stereo not drawn) [Example 55] | 3.67 | 100%
33 | Cn1nnnc1C(=NOCc1csc(NC(=O)COCC2CCCCO2)n1)c1ccccc1 (stereo not drawn) [Example 57] | 3.25 | 95%
34 | CC(OCC1CCCCO1)C(=O)Nc1nc(CON=C(c2ccccc2)c2nnnn2C)cs1 (stereo not drawn) [Example 59] | 3.62 | 100%
35 | Cc1nnnn1C(=NOCc1cccc(NC(=O)COCC2CCCO2)n1)c1ccccc1 (stereo not drawn) [Example 61] | 2.98 | 
36 | Cc1nnnn1C(=NOCc1csc(NC(=O)C(C)OCC2CCCCO2)n1)c1ccccc1 (stereo not drawn) [Example 62] | 3.69 | 98%
37 | Cn1nnnc1C(=NOCc1cccc(NC(=O)CSCc2ccccc2)n1)c1ccccc1 [Example 64] | 3.78 | 
38 | C=CCSC(C)C(=O)Nc1cccc(CON=C(c2ccccc2)c2nnnn2C)n1 (stereo not drawn) [Example 66] |  | 95%
39 | Cn1nnnc1C(=NOCc1cccc(NC(=O)OCC(C)(C)OCc2ccccc2)n1)c1ccccc1 [Example 68] | 4.34 | 100%
40 | Cn1nnnc1C(=NOCc1csc(NC(=O)CSCc2cccs2)n1)c1ccccc1 [Example 69] | 3.46 | 95%
41 | C=CCSCC(=O)Nc1nc(CON=C(c2ccccc2)c2nnnn2C)cs1 [Example 72] | 3.11 | 100%
42 | CC(SC1CCCC1)C(=O)Nc1nc(CON=C(c2ccccc2)c2nnnn2C)cs1 (stereo not drawn) [Example 73] | 3.99 | 95%
43 | C=CCSC(C)C(=O)Nc1nc(CON=C(c2ccccc2)c2nnnn2C)cs1 (stereo not drawn) [Example 75] | 3.31 | 93%
44 | Cn1nnnc1C(=NOCc1csc(NC(=O)CSC2CCCCC2)n1)c1ccccc1 [Example 76] | 3.92 | 100%
45 | Cn1nnnc1C(=NOCc1csc(NC(=O)CSC2CCCC2)n1)c1ccccc1 [Example 77] | 3.65 | 95%
46 | Cc1ccccc1CSCC(=O)Nc1cccc(CON=C(c2ccccc2)n2nnnc2C)n1 [Example 78] | 4.06 | 100%
47 | Cc1nnnn1C(=NOCc1cccc(NC(=O)CSC2CCCCC2)n1)c1ccccc1 [Example 79] | 4.26 | 100%
48 | Cc1nnnn1C(=NOCc1cccc(NC(=O)CSC2CCCC2)n1)c1ccccc1 [Example 80] | 3.92 | 100%
49 | Cc1nnnn1C(=NOCc1csc(NC(=O)CSCCC(C)C)n1)c1ccccc1 [Example 81] | 3.99 | 95%
50 | Cc1nnnn1C(=NOCc1csc(NC(=O)C(C)SCc2ccccc2)n1)c1ccccc1 (stereo not drawn) [Example 82] | 3.85 | 100%
